Assay results reported in patent publication US20240279240A1, “HETEROCYCLIC DERIVATIVES AS JANUS KINASE INHIBITORS” (CHIESI FARMACEUTICI S.P.A., priority 2021, published 2024).

Experiments:
JAK 3 = target: T1, JAK 3 (Homo sapiens, UniProt P52333); assay: Biochemical potency on JAK3, TR-FRET LANCE Ultra kinase assay (examples 1-99); details: ATP at Km (0.2 μM), read-out: JAK3 inhibitory activity (pIC50 class) (converted)
T1 sequence (P52333 1-1124): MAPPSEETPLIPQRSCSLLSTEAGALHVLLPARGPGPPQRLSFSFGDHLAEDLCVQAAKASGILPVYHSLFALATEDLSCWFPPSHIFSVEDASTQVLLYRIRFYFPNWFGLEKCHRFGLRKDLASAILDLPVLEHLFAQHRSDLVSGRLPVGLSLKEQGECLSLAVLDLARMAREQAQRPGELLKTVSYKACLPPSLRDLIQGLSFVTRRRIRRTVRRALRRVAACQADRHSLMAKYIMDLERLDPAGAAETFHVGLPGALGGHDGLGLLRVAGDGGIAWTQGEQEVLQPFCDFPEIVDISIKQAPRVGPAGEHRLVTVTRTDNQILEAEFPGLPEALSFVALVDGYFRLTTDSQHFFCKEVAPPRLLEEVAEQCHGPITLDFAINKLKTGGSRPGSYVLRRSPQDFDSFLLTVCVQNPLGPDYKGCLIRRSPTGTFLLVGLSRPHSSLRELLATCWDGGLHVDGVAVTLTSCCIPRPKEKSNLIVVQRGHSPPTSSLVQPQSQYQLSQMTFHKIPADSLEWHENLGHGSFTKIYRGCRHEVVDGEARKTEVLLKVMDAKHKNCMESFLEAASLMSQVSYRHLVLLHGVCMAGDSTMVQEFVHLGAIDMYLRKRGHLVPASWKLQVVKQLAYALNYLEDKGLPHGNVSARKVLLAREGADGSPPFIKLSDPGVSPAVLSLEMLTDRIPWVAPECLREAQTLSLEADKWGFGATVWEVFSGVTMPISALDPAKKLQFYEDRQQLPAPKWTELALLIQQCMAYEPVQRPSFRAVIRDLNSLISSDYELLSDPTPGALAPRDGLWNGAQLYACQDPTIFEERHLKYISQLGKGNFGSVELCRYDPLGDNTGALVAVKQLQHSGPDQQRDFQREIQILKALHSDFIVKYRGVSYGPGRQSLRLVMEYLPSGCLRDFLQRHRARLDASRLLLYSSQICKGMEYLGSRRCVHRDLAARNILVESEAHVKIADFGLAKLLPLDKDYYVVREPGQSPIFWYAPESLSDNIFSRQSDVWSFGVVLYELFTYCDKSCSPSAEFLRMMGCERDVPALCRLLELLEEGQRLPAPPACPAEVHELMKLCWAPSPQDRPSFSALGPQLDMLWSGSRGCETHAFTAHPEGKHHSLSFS
Protocol: (§1) The objective of this study was to assess the capability of compounds to inhibit all 4 JAK isoforms activity in a cell-free environment. Assay for JAK 1, JAK 2, JAK 3 and TYK2 were performed by Time-resolved fluorescence resonance energy transfer (TR-FRET) technology. It consists in the interaction of two labelled binding partners detected by the energy transfer from an excited donor to an acceptor dye and measurement of light emission by the acceptor dye. LANCE Ultra kinase assay was used. In presence of JAK 1, JAK 2, JAK 3 and TYK2 kinases and ATP (corresponding to Km), the ULight peptide substrate (LANCE Ulight-JAK-1 (Tyr1023) Peptide, Perkin Elmer, TRF0121) is phosphorylated. It is then captured by Eu-anti-phospho-substrate antibody (LANCE Eu-W1024 Anti-phosphotyrosine (PT66), Perkin Elmer, AD0069), which bring the Eu-chelate donor and ULight acceptor dyes into close proximity. Upon excitation at 320 nm, the Eu-chelate transfers its energy to the ULight dye, resulting in a fluorescent light emission at 665 nm.
(§2) Serial dilutions of compounds in pure DMSO are prepared from 10 mM DMSO stock solutions. Compounds were tested in 384-well plate for 11 consecutive 5-fold dilutions starting from 20 μM highest concentration (20 μM-[…]). 200 nL of compound were transferred from mother plate to test plate by using Mosquito (TTP labtech). Assay was performed in 384-well Perkin Elmer test plate in 20 μL assay volume (kinase reaction) and 40 μL total volume (stopping reagent and antibody detection reagents). In 10 μL of substrate solution (peptide+ATP) 30/50/20/10 nM of peptide and 20/0.7/0.2/12 μM of ATP were added for JAK 1, JAK 2, JAK 3 and TYK2 respectively. 10 μL of enzyme solution was added to kinase reaction at these concentrations: 0.15/0.083/0.025/0.144 ng/μL of JAK 1, JAK 2, JAK 3 and TYK2 respectively. After shaking and 1.5 h of incubation at r.t., 20 μL of Stop (10 μL EDTA) and Detection mixture (10 μL Europium-anti-phospho antibody, final: 0.5 nM) were added. Reading was performed after 1 h of incubation on a EnVision 2104 reader (Perkin Elmer).
(§3) Calculation of IC50 data, curves and QC analysis was performed by using Excel tool and GraphPadPrism software, v9. Briefly, individual concentration-effect curves are generated by plotting the logarithm of the tested concentration of tested compounds (X) vs. corresponding percent inhibition values (Y) using least squares (ordinary) fit. Best fit IC50 values are calculated using Log(inhibitor) vs. normalized response—Variable slope equation, where Y=100/(1+10^((Log IC50−X)*HillSlope)). QC criteria parameters (Z′, S:B, R2, HillSlope) were checked for every IC50 curve. Calculation of IC50 data, curves and QC analysis were made using Excel tools and GraphPadPrism software. QC criteria parameters: Z′≥0.5, Hill Slope range 0.5 to 5, S:B>2.

JAK 1 = JAK 1 (Homo sapiens, UniProt P23458); assay: Biochemical potency on JAK1, TR-FRET LANCE Ultra kinase assay (examples 1-99); details: ATP at Km (20 μM), read-out: JAK1 inhibitory activity (pIC50 class) (converted)
Chain of JAK 1 (P23458 whole entry): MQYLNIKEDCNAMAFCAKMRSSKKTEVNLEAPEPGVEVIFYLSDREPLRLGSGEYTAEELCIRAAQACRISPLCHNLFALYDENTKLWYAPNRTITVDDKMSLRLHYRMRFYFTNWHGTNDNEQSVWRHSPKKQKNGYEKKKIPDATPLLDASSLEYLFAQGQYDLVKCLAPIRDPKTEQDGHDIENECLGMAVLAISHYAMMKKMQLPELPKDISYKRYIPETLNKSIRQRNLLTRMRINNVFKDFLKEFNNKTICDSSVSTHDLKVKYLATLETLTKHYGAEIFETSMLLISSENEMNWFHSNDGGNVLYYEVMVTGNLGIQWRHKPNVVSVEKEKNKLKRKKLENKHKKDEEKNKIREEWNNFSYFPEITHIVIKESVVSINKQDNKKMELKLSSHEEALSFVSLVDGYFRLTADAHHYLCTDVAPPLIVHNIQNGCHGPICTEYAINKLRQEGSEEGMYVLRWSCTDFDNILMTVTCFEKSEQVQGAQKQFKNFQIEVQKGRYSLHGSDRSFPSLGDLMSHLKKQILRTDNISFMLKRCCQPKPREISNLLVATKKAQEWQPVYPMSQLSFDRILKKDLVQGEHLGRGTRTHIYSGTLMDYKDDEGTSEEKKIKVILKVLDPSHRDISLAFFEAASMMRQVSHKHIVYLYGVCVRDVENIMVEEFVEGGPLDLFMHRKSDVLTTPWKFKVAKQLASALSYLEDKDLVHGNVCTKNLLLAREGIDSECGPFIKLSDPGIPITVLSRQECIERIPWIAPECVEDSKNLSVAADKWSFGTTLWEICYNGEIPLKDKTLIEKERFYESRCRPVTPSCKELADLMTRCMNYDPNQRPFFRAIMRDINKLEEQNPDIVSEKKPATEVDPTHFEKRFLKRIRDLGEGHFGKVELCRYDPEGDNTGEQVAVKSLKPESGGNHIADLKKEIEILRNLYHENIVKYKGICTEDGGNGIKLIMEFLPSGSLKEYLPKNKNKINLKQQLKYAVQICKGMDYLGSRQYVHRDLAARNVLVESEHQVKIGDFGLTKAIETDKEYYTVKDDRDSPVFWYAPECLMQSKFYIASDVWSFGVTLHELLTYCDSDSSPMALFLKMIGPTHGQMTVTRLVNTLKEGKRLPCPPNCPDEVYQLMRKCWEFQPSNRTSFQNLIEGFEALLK
Protocol: as §1, §2, §3

TYK2 = TYK2 (Homo sapiens, UniProt P29597); assay: Biochemical potency on Tyk2, TR-FRET LANCE Ultra kinase assay (examples 1-99); details: ATP at Km (12 μM), read-out: Tyk2 inhibitory activity (pIC50 class) (converted)
Chain of TYK2 (P29597 whole entry): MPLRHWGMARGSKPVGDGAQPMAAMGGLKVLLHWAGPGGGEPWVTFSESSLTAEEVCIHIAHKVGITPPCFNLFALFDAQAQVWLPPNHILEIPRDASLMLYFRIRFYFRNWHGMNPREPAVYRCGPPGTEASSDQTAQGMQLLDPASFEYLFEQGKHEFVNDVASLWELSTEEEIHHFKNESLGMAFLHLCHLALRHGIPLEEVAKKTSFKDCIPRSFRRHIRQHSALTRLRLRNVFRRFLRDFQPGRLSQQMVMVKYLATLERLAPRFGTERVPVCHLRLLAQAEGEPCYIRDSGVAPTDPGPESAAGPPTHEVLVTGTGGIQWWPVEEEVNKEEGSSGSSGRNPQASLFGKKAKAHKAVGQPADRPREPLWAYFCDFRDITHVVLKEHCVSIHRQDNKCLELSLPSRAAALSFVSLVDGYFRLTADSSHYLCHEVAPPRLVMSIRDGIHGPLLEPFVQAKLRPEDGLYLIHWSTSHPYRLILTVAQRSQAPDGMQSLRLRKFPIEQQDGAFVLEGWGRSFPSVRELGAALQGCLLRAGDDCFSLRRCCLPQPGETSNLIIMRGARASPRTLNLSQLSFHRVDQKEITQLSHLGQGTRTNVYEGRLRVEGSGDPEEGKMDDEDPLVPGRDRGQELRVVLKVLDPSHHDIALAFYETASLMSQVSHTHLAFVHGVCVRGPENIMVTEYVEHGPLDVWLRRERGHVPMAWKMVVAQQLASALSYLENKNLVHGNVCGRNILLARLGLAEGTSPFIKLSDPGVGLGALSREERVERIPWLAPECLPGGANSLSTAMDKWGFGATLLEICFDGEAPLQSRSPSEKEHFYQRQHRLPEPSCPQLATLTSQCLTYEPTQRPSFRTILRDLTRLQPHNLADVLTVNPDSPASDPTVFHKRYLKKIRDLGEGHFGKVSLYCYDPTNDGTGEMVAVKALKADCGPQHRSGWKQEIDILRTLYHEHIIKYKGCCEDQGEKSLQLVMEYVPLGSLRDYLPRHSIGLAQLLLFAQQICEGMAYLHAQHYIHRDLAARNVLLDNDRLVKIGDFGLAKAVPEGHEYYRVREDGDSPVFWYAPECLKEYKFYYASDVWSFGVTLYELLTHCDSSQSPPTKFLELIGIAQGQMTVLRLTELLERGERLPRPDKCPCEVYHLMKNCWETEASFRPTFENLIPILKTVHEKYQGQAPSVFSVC
Protocol: as §1, §2, §3

JAK 2 = JAK 2 (Homo sapiens, UniProt O60674); assay: Biochemical potency on JAK2, TR-FRET LANCE Ultra kinase assay (examples 1-99); details: ATP at Km (0.7 μM), read-out: JAK2 inhibitory activity (pIC50 class) (converted)
Chain of JAK 2 (O60674 whole entry): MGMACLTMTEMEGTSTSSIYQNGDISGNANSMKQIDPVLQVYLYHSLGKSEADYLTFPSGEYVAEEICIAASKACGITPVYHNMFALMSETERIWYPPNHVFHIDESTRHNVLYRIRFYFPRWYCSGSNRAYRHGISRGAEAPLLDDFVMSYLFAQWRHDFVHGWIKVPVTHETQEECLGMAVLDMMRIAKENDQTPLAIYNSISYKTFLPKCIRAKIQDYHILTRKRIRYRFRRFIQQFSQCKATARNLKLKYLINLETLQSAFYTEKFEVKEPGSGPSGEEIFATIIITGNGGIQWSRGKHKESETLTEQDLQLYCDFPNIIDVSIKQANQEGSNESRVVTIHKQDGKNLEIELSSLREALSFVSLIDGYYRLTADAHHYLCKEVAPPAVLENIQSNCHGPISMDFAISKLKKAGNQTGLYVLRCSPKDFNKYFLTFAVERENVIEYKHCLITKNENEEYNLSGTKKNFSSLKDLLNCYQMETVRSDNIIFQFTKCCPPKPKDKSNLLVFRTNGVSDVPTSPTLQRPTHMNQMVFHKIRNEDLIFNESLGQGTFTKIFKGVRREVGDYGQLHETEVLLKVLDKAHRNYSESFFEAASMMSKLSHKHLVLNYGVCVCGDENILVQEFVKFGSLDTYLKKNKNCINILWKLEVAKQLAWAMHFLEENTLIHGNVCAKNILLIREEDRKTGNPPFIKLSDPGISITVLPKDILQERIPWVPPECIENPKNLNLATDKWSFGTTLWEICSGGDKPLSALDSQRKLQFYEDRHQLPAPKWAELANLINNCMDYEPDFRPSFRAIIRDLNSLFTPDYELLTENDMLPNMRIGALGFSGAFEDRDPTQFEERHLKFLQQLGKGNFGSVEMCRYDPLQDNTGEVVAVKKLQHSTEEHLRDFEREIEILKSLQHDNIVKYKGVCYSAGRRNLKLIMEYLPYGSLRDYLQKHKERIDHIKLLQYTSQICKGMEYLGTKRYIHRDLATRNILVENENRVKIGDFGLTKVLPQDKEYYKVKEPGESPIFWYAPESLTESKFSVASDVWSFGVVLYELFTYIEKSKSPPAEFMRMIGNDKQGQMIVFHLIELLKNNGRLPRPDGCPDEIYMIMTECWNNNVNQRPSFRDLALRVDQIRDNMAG
Protocol: as §1, §2, §3

Row | SMILES | IC50 (JAK 3) [nM] | IC50 (JAK 1) [nM] | IC50 (TYK2) [nM] | IC50 (JAK 2) [nM]
1 | CNCc1nn(-c2cc(Cl)ccc2OC(F)F)c2cc(-c3cnn4cccnc34)ncc12 [Example 31, 1-(1-(5-chloro-2-(difluoromethoxy)phenyl)-6-(pyrazolo[1,5-a]pyrimidin-3-yl)-1H-pyrazolo[4,3-c]pyridin-3-yl)-N-methylmethanamine] | 5.01 to 50.1 | 5.01 to 50.1 | > 50.1 | 5.01 to 50.1
2 | NCc1nn(-c2cc(Cl)ccc2OC(F)F)c2cc(-c3cnn4cccnc34)ncc12 [Example 32, (1-(5-chloro-2-(difluoromethoxy)phenyl)-6-(pyrazolo[1,5-a]pyrimidin-3-yl)-1H-pyrazolo[4,3-c]pyridin-3-yl)methanamine] | 5.01 to 50.1 | 5.01 to 50.1 | 5.01 to 50.1 | ≤ 5.01
3 | CNC(=O)c1nn(-c2cc(Cl)ccc2OC(F)F)c2cc(-c3cnn4cccnc34)ncc12 [Example 33, 1-(5-chloro-2-(difluoromethoxy)phenyl)-N-methyl-6-(pyrazolo[1,5-a]pyrimidin-3-yl)-1H-pyrazolo[4,3-c]pyridine-3-carboxamide] | ≤ 5.01 | ≤ 5.01 | 5.01 to 50.1 | ≤ 5.01
4 | COc1ccc(Cl)cc1-n1nc(C(=O)N[C@H]2C[C@@H](O)C2)c2cnc(-c3cnn4cccnc34)cc21 [Example 34, 1-(5-chloro-2-methoxyphenyl)-N-((1s,3s)-3-hydroxycyclobutyl)-6-(pyrazolo[1,5-a]pyrimidin-3-yl)-1H-pyrazolo[4,3-c]pyridine-3-carboxamide] | 5.01 to 50.1 | 5.01 to 50.1 | > 50.1 | 5.01 to 50.1
5 | O=C(c1nn(-c2cc(Cl)ccc2OC(F)F)c2cc(-c3cnn4cccnc34)ncc12)N1CCS(=O)(=O)CC1 [Example 35, (1-(5-chloro-2-(difluoromethoxy)phenyl)-6-(pyrazolo[1,5-a]pyrimidin-3-yl)-1H-pyrazolo[4,3-c]pyridin-3-yl)(1,1-dioxidothiomorpholino)methanone] | 5.01 to 50.1 | 5.01 to 50.1 | 5.01 to 50.1 | 5.01 to 50.1
6 | CN(C)[C@H]1C[C@@H](NC(=O)c2nn(-c3cc(Cl)ccc3OC(F)F)c3cc(-c4cnn5cccnc45)ncc23)C1 [Example 36, 1-(5-chloro-2-(difluoromethoxy)phenyl)-N-((1s,3s)-3-(dimethylamino)cyclobutyl)-6-(pyrazolo[1,5-a]pyrimidin-3-yl)-1H-pyrazolo[4,3-c]pyridine-3-carboxamide] | 5.01 to 50.1 | 5.01 to 50.1 | > 50.1 | 5.01 to 50.1
7 | CSc1ccc(OC(F)F)c(-n2nc(C(=O)NCCCN(C)C)c3cnc(-c4cnn5cccnc45)cc32)c1 [Example 37, 1-(2-(difluoromethoxy)-5-(methylthio)phenyl)-N-(3-(dimethylamino)propyl)-6-(pyrazolo[1,5-a]pyrimidin-3-yl)-1H-pyrazolo[4,3-c]pyridine-3-carboxamide] | ≤ 5.01 | ≤ 5.01 | 5.01 to 50.1 | ≤ 5.01
8 | COc1ccc(F)cc1-n1nc(C(=O)NCCCN(C)C)c2cnc(-c3cnn4cccnc34)cc21 [Example 38, N-(3-(dimethylamino)propyl)-1-(5-fluoro-2-methoxyphenyl)-6-(pyrazolo[1,5-a]pyrimidin-3-yl)-1H-pyrazolo[4,3-c]pyridine-3-carboxamide] | 5.01 to 50.1 | 5.01 to 50.1 | > 50.1 | 5.01 to 50.1
9 | COc1ccc(Cl)cc1-n1nc(N)c2cnc(-c3cnn4cccnc34)cc21 [Example 39, 1-(5-chloro-2-methoxyphenyl)-6-(pyrazolo[1,5-a]pyrimidin-3-yl)-1H-pyrazolo[4,3-c]pyridin-3-amine] | ≤ 5.01 | ≤ 5.01 | 5.01 to 50.1 | ≤ 5.01
10 | COc1ccc(Cl)cc1-n1nc(NC(C)=O)c2cnc(-c3cnn4cccnc34)cc21 [Example 40, N-(1-(5-chloro-2-methoxyphenyl)-6-(pyrazolo[1,5-a]pyrimidin-3-yl)-1H-pyrazolo[4,3-c]pyridin-3-yl)acetamide] | ≤ 5.01 | ≤ 5.01 | 5.01 to 50.1 | ≤ 5.01
11 | CNc1nn(-c2cc(Cl)ccc2OC)c2cc(-c3cnn4cccnc34)ncc12 [Example 41, 1-(5-chloro-2-methoxyphenyl)-N-methyl-6-(pyrazolo[1,5-a]pyrimidin-3-yl)-1H-pyrazolo[4,3-c]pyridin-3-amine] | ≤ 5.01 | ≤ 5.01 | 5.01 to 50.1 | ≤ 5.01
12 | COc1ccc(Cl)cc1-n1nc(N(C)C)c2cnc(-c3cnn4cccnc34)cc21 [Example 42, 1-(5-chloro-2-methoxyphenyl)-N,N-dimethyl-6-(pyrazolo[1,5-a]pyrimidin-3-yl)-1H-pyrazolo[4,3-c]pyridin-3-amine] | 5.01 to 50.1 | 5.01 to 50.1 | 5.01 to 50.1 | 5.01 to 50.1
13 | COc1ccc(S(C)(=O)=O)cc1-n1nc(NCCN2CCOCC2)c2cnc(-c3cnn4cccnc34)cc21 [Example 43, 1-(2-methoxy-5-(methylsulfonyl)phenyl)-N-(2-morpholinoethyl)-6-(pyrazolo[1,5-a]pyrimidin-3-yl)-1H-pyrazolo[4,3-c]pyridin-3-amine] | 5.01 to 50.1 | 5.01 to 50.1 | > 50.1 | 5.01 to 50.1
14 | COc1ccc(C(F)F)cc1-n1nc(NCCN(C)C)c2cnc(-c3cnn4cccnc34)cc21 [Example 44, N1-(1-(5-(difluoromethyl)-2-methoxyphenyl)-6-(pyrazolo[1,5-a]pyrimidin-3-yl)-1H-pyrazolo[4,3-c]pyridin-3-yl)-N2,N2-dimethylethane-1,2-diamine] | 5.01 to 50.1 | 5.01 to 50.1 | 5.01 to 50.1 | ≤ 5.01
15 | COc1ccc(C)cc1-n1nc(NCCN(C)C)c2cnc(-c3cnn4cccnc34)cc21 [Example 45, N1-(1-(2-methoxy-5-methylphenyl)-6-(pyrazolo[1,5-a]pyrimidin-3-yl)-1H-pyrazolo[4,3-c]pyridin-3-yl)-N2,N2-dimethylethane-1,2-diamine] | 5.01 to 50.1 | 5.01 to 50.1 | > 50.1 | 5.01 to 50.1
